{"source": "paper PMC5146859", "about": "“Phase 1/2 study of pacritinib, a next generation JAK2/FLT3 inhibitor, in myelofibrosis or other myeloid malignancies” (Journal of Hematology & Oncology, 2016)", "tested_on": "patients with advanced myeloid malignancies", "assay": "Phase 1 safety: adverse events (NCIC-CTCAE version 3.0)", "assay_type": "in vivo, human", "method": "At screening/baseline, patients underwent a medical history, physical examination, vital sign assessment, ECOG PS assessment, electrocardiogram, and assessment of hematologic parameters and blood chemistry. Hematology/blood chemistry, physical examinations, and vital sign assessments were performed throughout treatment. Toxicity was assessed using the National Cancer Institute Common Terminology Criteria for Adverse Events (NCIC-CTCAE), version 3.0, with relationship to treatment assigned by the investigator and were recorded from the first dose of pacritinib until 30 days after the last dose. Bone marrow biopsy and/or aspirate samples were drawn at baseline, on day 1 of cycle 4 and cycle 10, as clinically indicated, and at the termination visit. Disease response and progression were determined using the relevant International Working Group (IWG) criteria.\nThe efficacy-evaluable population included those patients with a baseline and corresponding follow-up value. The safety population included all enrolled patients who received ≥1 dose of pacritinib."}
{"smiles": "C1=C/COCc2cc(ccc2OCCN2CCCC2)Nc2nccc(n2)-c2cccc(c2)COC/1", "note": "[pacritinib, 11-(2-pyrrolidin-1-yl-ethoxy)-14,19-dioxa-5,7,26-triaza-tetracyclo[19.3.1.1(2,6). 1(8,12)]heptacosa-1(25),2(26),3,5,8,10,12(27),16,21,23-decaene]", "values": [{"measurement": "Grade 4 gastrointestinal AEs", "setting": "phase 1", "result": "No grade 4 gastrointestinal AEs occurred"}, {"measurement": "Relation of fatal AEs to treatment", "setting": "phase 1", "result": "None of the AEs were considered to be related to treatment"}, {"measurement": "Treatment-emergent AE: Abdominal distension", "setting": "phase 1, 100 mg, n = 3", "result": "0 n (%)"}, {"measurement": "Treatment-emergent AE: Abdominal pain", "setting": "phase 1, 100 mg, n = 3", "result": "1 (33.3) n (%)"}, {"measurement": "Treatment-emergent AE: Anemia", "setting": "phase 1, 100 mg, n = 3", "result": "0 n (%)"}, {"measurement": "Treatment-emergent AE: Any AE", "setting": "phase 1, 100 mg, n = 3", "result": "3 (100.0) n (%)"}, {"measurement": "Treatment-emergent AE: Asthenia", "setting": "phase 1, 100 mg, n = 3", "result": "2 (66.7) n (%)"}, {"measurement": "Treatment-emergent AE: Back pain", "setting": "phase 1, 100 mg, n = 3", "result": "1 (33.3) n (%)"}, {"measurement": "Treatment-emergent AE: Cardiac murmur", "setting": "phase 1, 100 mg, n = 3", "result": "1 (33.3) n (%)"}, {"measurement": "Treatment-emergent AE: Chills", "setting": "phase 1, 100 mg, n = 3", "result": "0 n (%)"}, {"measurement": "Treatment-emergent AE: Constipation", "setting": "phase 1, 100 mg, n = 3", "result": "2 (66.7) n (%)"}, {"measurement": "Treatment-emergent AE: Cough", "setting": "phase 1, 100 mg, n = 3", "result": "1 (33.3) n (%)"}, {"measurement": "Treatment-emergent AE: Decreased appetite", "setting": "phase 1, 100 mg, n = 3", "result": "2 (66.7) n (%)"}, {"measurement": "Treatment-emergent AE: Dehydration", "setting": "phase 1, 100 mg, n = 3", "result": "0 n (%)"}, {"measurement": "Treatment-emergent AE: Diarrhea", "setting": "phase 1, 100 mg, n = 3", "result": "2 (66.7) n (%)"}, {"measurement": "Treatment-emergent AE: Dizziness", "setting": "phase 1, 100 mg, n = 3", "result": "0 n (%)"}, {"measurement": "Treatment-emergent AE: Dyspnea", "setting": "phase 1, 100 mg, n = 3", "result": "2 (66.7) n (%)"}, {"measurement": "Treatment-emergent AE: Edema peripheral", "setting": "phase 1, 100 mg, n = 3", "result": "2 (66.7) n (%)"}, {"measurement": "Treatment-emergent AE: Epistaxis", "setting": "phase 1, 100 mg, n = 3", "result": "2 (66.7) n (%)"}, {"measurement": "Treatment-emergent AE: Fatigue", "setting": "phase 1, 100 mg, n = 3", "result": "1 (33.3) n (%)"}, {"measurement": "Treatment-emergent AE: Hyperbilirubinemia", "setting": "phase 1, 100 mg, n = 3", "result": "1 (33.3) n (%)"}, {"measurement": "Treatment-emergent AE: Hyperuricemia", "setting": "phase 1, 100 mg, n = 3", "result": "1 (33.3) n (%)"}, {"measurement": "Treatment-emergent AE: Insomnia", "setting": "phase 1, 100 mg, n = 3", "result": "1 (33.3) n (%)"}, {"measurement": "Treatment-emergent AE: Nausea", "setting": "phase 1, 100 mg, n = 3", "result": "0 n (%)"}, {"measurement": "Treatment-emergent AE: Neutropenia", "setting": "phase 1, 100 mg, n = 3", "result": "1 (33.3) n (%)"}, {"measurement": "Treatment-emergent AE: Night sweats", "setting": "phase 1, 100 mg, n = 3", "result": "1 (33.3) n (%)"}, {"measurement": "Treatment-emergent AE: Pain in extremity", "setting": "phase 1, 100 mg, n = 3", "result": "3 (100.0) n (%)"}, {"measurement": "Treatment-emergent AE: Petechiae", "setting": "phase 1, 100 mg, n = 3", "result": "2 (66.7) n (%)"}, {"measurement": "Treatment-emergent AE: Pyrexia", "setting": "phase 1, 100 mg, n = 3", "result": "1 (33.3) n (%)"}, {"measurement": "Treatment-emergent AE: Skin lesion", "setting": "phase 1, 100 mg, n = 3", "result": "0 n (%)"}, {"measurement": "Treatment-emergent AE: Thrombocytopenia", "setting": "phase 1, 100 mg, n = 3", "result": "1 (33.3) n (%)"}, {"measurement": "Treatment-emergent AE: Upper respiratory tract infection", "setting": "phase 1, 100 mg, n = 3", "result": "0 n (%)"}, {"measurement": "Treatment-emergent AE: Vomiting", "setting": "phase 1, 100 mg, n = 3", "result": "0 n (%)"}, {"measurement": "Treatment-emergent AE: Abdominal distension", "setting": "phase 1, 150 mg, n = 6", "result": "0 n (%)"}, {"measurement": "Treatment-emergent AE: Abdominal pain", "setting": "phase 1, 150 mg, n = 6", "result": "1 (16.7) n (%)"}, {"measurement": "Treatment-emergent AE: Anemia", "setting": "phase 1, 150 mg, n = 6", "result": "1 (16.7) n (%)"}, {"measurement": "Treatment-emergent AE: Any AE", "setting": "phase 1, 150 mg, n = 6", "result": "6 (100.0) n (%)"}, {"measurement": "Treatment-emergent AE: Asthenia", "setting": "phase 1, 150 mg, n = 6", "result": "2 (33.3) n (%)"}, {"measurement": "Treatment-emergent AE: Back pain", "setting": "phase 1, 150 mg, n = 6", "result": "2 (33.3) n (%)"}, {"measurement": "Treatment-emergent AE: Cardiac murmur", "setting": "phase 1, 150 mg, n = 6", "result": "0 n (%)"}, {"measurement": "Treatment-emergent AE: Chills", "setting": "phase 1, 150 mg, n = 6", "result": "2 (33.3) n (%)"}, {"measurement": "Treatment-emergent AE: Constipation", "setting": "phase 1, 150 mg, n = 6", "result": "2 (33.3) n (%)"}, {"measurement": "Treatment-emergent AE: Cough", "setting": "phase 1, 150 mg, n = 6", "result": "1 (16.7) n (%)"}, {"measurement": "Treatment-emergent AE: Decreased appetite", "setting": "phase 1, 150 mg, n = 6", "result": "2 (33.3) n (%)"}, {"measurement": "Treatment-emergent AE: Dehydration", "setting": "phase 1, 150 mg, n = 6", "result": "1 (16.7) n (%)"}, {"measurement": "Treatment-emergent AE: Diarrhea", "setting": "phase 1, 150 mg, n = 6", "result": "2 (33.3) n (%)"}, {"measurement": "Treatment-emergent AE: Dizziness", "setting": "phase 1, 150 mg, n = 6", "result": "0 n (%)"}, {"measurement": "Treatment-emergent AE: Dyspnea", "setting": "phase 1, 150 mg, n = 6", "result": "1 (16.7) n (%)"}, {"measurement": "Treatment-emergent AE: Edema peripheral", "setting": "phase 1, 150 mg, n = 6", "result": "2 (33.3) n (%)"}, {"measurement": "Treatment-emergent AE: Epistaxis", "setting": "phase 1, 150 mg, n = 6", "result": "1 (16.7) n (%)"}, {"measurement": "Treatment-emergent AE: Fatigue", "setting": "phase 1, 150 mg, n = 6", "result": "1 (16.7) n (%)"}, {"measurement": "Treatment-emergent AE: Hyperbilirubinemia", "setting": "phase 1, 150 mg, n = 6", "result": "1 (16.7) n (%)"}, {"measurement": "Treatment-emergent AE: Hyperuricemia", "setting": "phase 1, 150 mg, n = 6", "result": "1 (16.7) n (%)"}, {"measurement": "Treatment-emergent AE: Insomnia", "setting": "phase 1, 150 mg, n = 6", "result": "1 (16.7) n (%)"}, {"measurement": "Treatment-emergent AE: Nausea", "setting": "phase 1, 150 mg, n = 6", "result": "1 (16.7) n (%)"}, {"measurement": "Treatment-emergent AE: Neutropenia", "setting": "phase 1, 150 mg, n = 6", "result": "2 (33.3) n (%)"}, {"measurement": "Treatment-emergent AE: Night sweats", "setting": "phase 1, 150 mg, n = 6", "result": "0 n (%)"}, {"measurement": "Treatment-emergent AE: Pain in extremity", "setting": "phase 1, 150 mg, n = 6", "result": "0 n (%)"}, {"measurement": "Treatment-emergent AE: Petechiae", "setting": "phase 1, 150 mg, n = 6", "result": "2 (33.3) n (%)"}, {"measurement": "Treatment-emergent AE: Pyrexia", "setting": "phase 1, 150 mg, n = 6", "result": "2 (33.3) n (%)"}, {"measurement": "Treatment-emergent AE: Skin lesion", "setting": "phase 1, 150 mg, n = 6", "result": "4 (66.7) n (%)"}, {"measurement": "Treatment-emergent AE: Thrombocytopenia", "setting": "phase 1, 150 mg, n = 6", "result": "2 (33.3) n (%)"}, {"measurement": "Treatment-emergent AE: Upper respiratory tract infection", "setting": "phase 1, 150 mg, n = 6", "result": "2 (33.3) n (%)"}, {"measurement": "Treatment-emergent AE: Vomiting", "setting": "phase 1, 150 mg, n = 6", "result": "1 (16.7) n (%)"}, {"measurement": "Treatment-emergent AE: Abdominal distension", "setting": "phase 1, 200 mg, n = 9", "result": "2 (22.2) n (%)"}, {"measurement": "Treatment-emergent AE: Abdominal pain", "setting": "phase 1, 200 mg, n = 9", "result": "1 (11.1) n (%)"}, {"measurement": "Treatment-emergent AE: Anemia", "setting": "phase 1, 200 mg, n = 9", "result": "1 (11.1) n (%)"}, {"measurement": "Treatment-emergent AE: Any AE", "setting": "phase 1, 200 mg, n = 9", "result": "9 (100.0) n (%)"}, {"measurement": "Treatment-emergent AE: Asthenia", "setting": "phase 1, 200 mg, n = 9", "result": "1 (11.1) n (%)"}, {"measurement": "Treatment-emergent AE: Back pain", "setting": "phase 1, 200 mg, n = 9", "result": "0 n (%)"}, {"measurement": "Treatment-emergent AE: Cardiac murmur", "setting": "phase 1, 200 mg, n = 9", "result": "1 (11.1) n (%)"}, {"measurement": "Treatment-emergent AE: Chills", "setting": "phase 1, 200 mg, n = 9", "result": "0 n (%)"}, {"measurement": "Treatment-emergent AE: Constipation", "setting": "phase 1, 200 mg, n = 9", "result": "2 (22.2) n (%)"}, {"measurement": "Treatment-emergent AE: Cough", "setting": "phase 1, 200 mg, n = 9", "result": "1 (11.1) n (%)"}, {"measurement": "Treatment-emergent AE: Decreased appetite", "setting": "phase 1, 200 mg, n = 9", "result": "0 n (%)"}]}
